Measurements: EPA's ToxValDB 9.5
Where “and” joins values, the source holds several entries; their conditions need not be identical. Identical values can stand only once.

Legend:
Mus musculus [1] = details: oral
Rattus norvegicus [2] = details: oral
Rattus norvegicus [3] = details: for LC50 / LD50: acute
Oryctolagus sp. = details: acute, dermal
Mus musculus [4] = details: oral; remark: listed apart in the source
Rattus norvegicus [5] = details: reproduction developmental; oral; M/F; reduced fertility index and reduced body weight of dams
[6] = developmental, duration: 1 days, gavage, M/F, NMRI, Developmental: Altered spontaneous behavior and habituation in adults exposed as neonates
[7] = developmental, duration: 42 days, gavage, M/F, CD1, Developmental: Decrease in number of pups per litter with no change in pup to implantation site ratio
[8] = developmental, duration: 16 days, gavage, F, Wistar, Developmental: 20% decrease in serum T4 levels in pups on PND 16/17 + Endocrine: 20-30% decreases in serum T4 levels in dams
[9] = reproduction developmental, duration: 56 days, gavage, M, Sprague-Dawley, Endocrine: Hypertrophy and hyperplasia of thyroid follicular cells in males
[10] = reproduction developmental, duration: 56 days, gavage, M, Sprague-Dawley, Renal: 31% increase in BUN in males

O=S(=O)(O)C(F)(F)C(F)(F)C(F)(F)C(F)(F)C(F)(F)C(F)(F)F [Perfluorohexanesulfonic acid]
LOAEL (Mus musculus [1]; [6]): 9.2 mg/kg-day
NOAEL (Mus musculus [1]; [6]): 6.1 mg/kg-day
NOAEL (Mus musculus [1]; developmental, duration: 42 days, gavage, M/F, CD1): 3 mg/kg-day
LOAEL (Mus musculus [1]; [7]): 1 mg/kg-day
NOAEL (Mus musculus [1]; [7]): 0.3 mg/kg-day
NOAEL (Mus musculus [1]; developmental, duration: 42 days, gavage, M/F, CD1, Hepatic: Single cell necrosis and microvascular fatty changes at 3 mg/kg/day / centrilobular hepatocellular hypertrophy at ?0.3 mg/kg/day …): 1 mg/kg-day
LOAEL (Mus musculus [1]; reproduction developmental, duration: 42 days, gavage, M/F, CD1, Hepatic: Single cell necrosis and microvascular fatty changes at 3 mg/kg/day / centrilobular hepatocellular hypertrophy at ?0.3 mg/kg/day …): 3 mg/kg-day
NOAEL (Mus musculus [1]; short-term, duration: 7 days, gavage, M, Hepatic: Hepatocellular hypertrophy, steatosis, and increased hepatic triglyceride levels): 10 mg/kg-day
NOAEL (Mus musculus [1]; subchronic, duration: 6 weeks, diet, M, Hepatic: Decreased plasma triglyceride, cholesterol, non-HDL cholesterol, and HDL cholesterol levels / increased hepatic triglyceride …): 6 mg/kg-day
LOAEL (Rattus norvegicus [2]; [8]): 5 mg/kg-day
NOAEL (Rattus norvegicus [2]; [8]): 0.05 mg/kg-day
LOAEL (Rattus norvegicus [2]; developmental, duration: 16 days, gavage, F, Wistar, Developmental: 40% decrease in serum T4 levels in pups on PND 16 + Endocrine: 60% decreases in serum T4 levels in dams): 25 mg/kg-day
NOAEL (Rattus norvegicus [2]; reproduction developmental, duration: 56 days, gavage, F, Sprague-Dawley, Hematological: 6% increase in prothrombin time in males at ?0.3 mg/kg/day / decreases in hemoglobin (4%), hematocrit (3%), and RBC levels (…): 10 mg/kg-day
NOAEL (Rattus norvegicus [2]; reproduction developmental, duration: 56 days, gavage, M/F, Sprague-Dawley, Hepatic: Increased liver weight / centrilobular hepatocellular hypertrophy in males at ?3 mg/kg/day + Immunotoxicological: No histological …): 10 mg/kg-day
LOAEL (Rattus norvegicus [2]; [9]): 3 mg/kg-day
NOAEL (Rattus norvegicus [2]; [9]): 1 mg/kg-day
LOAEL (Rattus norvegicus [2]; reproduction developmental, duration: 56 days, gavage, M, Sprague-Dawley, Hematological: 6% increase in prothrombin time in males at ?0.3 mg/kg/day / decreases in hemoglobin (4%), hematocrit (3%), and RBC levels (…): 0.3 mg/kg-day
LOAEL (Rattus norvegicus [2]; [10]): 10 mg/kg-day
NOAEL (Rattus norvegicus [2]; [10]): 3 mg/kg-day
NOAEL (Rattus norvegicus [2]; short-term, duration: 16 days, gavage, F, Wistar): 45 mg/kg-day and 25 mg/kg-day

CCOP(=O)(OCC)OC(=CCl)c1ccc(Cl)cc1Cl [Chlorfenvinphos]
LOAEL (Mus musculus [1]; subchronic, duration: 3 months, M/F, C57BL/6, immunological): 1.5 mg/kg-day
LOAEL (Rattus norvegicus [2]; chronic, duration: 104 weeks, diet, M/F, Wistar, neurological): 0.7 mg/kg-day
LOAEL (Rattus norvegicus [2]; short-term, duration: 10 days, diet, F, Wistar, neurological): 2.4 mg/kg-day

CCCCCCCCCCCCCOC(=O)CCCCC(=O)OCCCCCCCCCCCCC [Bis(tridecyl) adipate]
LC50 (Rattus norvegicus [3]; Inhalation, Sprague-Dawley): > 3.2 µg/mL
LD50 (Rattus norvegicus [3]; oral, Sherman Wistar): > 16000 mg/kg
LD50 (Rattus norvegicus [3]; oral, gavage, Wistar): > 15000 mg/kg
NOAEL (Rattus norvegicus [3]; reproduction developmental, duration: 19 days, dermal, Sprague-Dawley): 800 mg/kg-day
NOAEL (Rattus norvegicus [3]; subchronic, duration: 13 weeks, dermal, Sprague-Dawley): 800 mg/kg-day
LD50 (Oryctolagus sp.): > 2000 mg/kg
LD50 (Oryctolagus sp.; semiocclusive, New Zealand): > 5000 mg/kg

O=C(O)CCCCCCCCCCC(=O)O [Dodecanedioic acid]
LC50 (Rattus norvegicus [3]; Inhalation): > 4.3 µg/mL
LD50 (Rattus norvegicus [3]; oral): > 3000 mg/kg
LD50 (Rattus norvegicus [3]; oral, gavage): > 17000 mg/kg
NOAEL (Rattus norvegicus [3]; reproduction developmental, duration: 50 days, oral, gavage, CRL:CD BR): 1000 mg/kg-day
LD50 (Oryctolagus sp.; occlusive): > 6000 mg/kg

CC(=O)Oc1cccc(Oc2ccc(C(F)(F)F)cc2Cl)c1 [2-Chloro-1-(3-acetoxyphenoxy)-4-(trifluoromethyl)benzene]
LC50 (Rattus norvegicus [3]; Inhalation, Wistar): > 4.13 µg/mL
LD50 (Rattus norvegicus [3]; oral, Crj:CD): > 500 mg/kg
LD50 (Oryctolagus sp.; occlusive, New Zealand): > 200 mg/kg

Cc1ccc([N+](=O)[O-])cc1C [1,2-Dimethyl-4-nitrobenzene]
LD50 (Rattus norvegicus [3]; oral, Wistar): 2640 mg/kg
LD50 (Oryctolagus sp.; occlusive, New Zealand): > 5700 mg/kg

CCCCCCCCOC(=O)c1ccccc1C(=O)OCCCCCCCC [Di-n-octyl phthalate]
LOAEL (Rattus norvegicus [2]; short-term, duration: 14 days, gavage, M, Sprague-Dawley, hepatic): 1000 mg/kg-day
NOAEL (Rattus norvegicus [2]; subchronic, duration: 13 weeks, diet, M/F, Sprague-Dawley, hepatic): 40.8 mg/kg-day
LD50 (Mus musculus [4]; acute): 13000 mg/kg
NOAEL (Mus musculus [4]; reproduction developmental, duration: 8 days, gavage, F, CD1): 9780 mg/kg-day
NOAEL (% diet) (Mus musculus [4]; reproduction developmental, CD1, generation: F0): 5
NOAEL (% diet) (Mus musculus [4]; reproduction developmental, CD1, generation: F1): 5
NOAEL (% diet) (Mus musculus [4]; reproduction developmental, CD1, generation: F2): 5
LD50 (Rattus norvegicus [3]; oral): 53700 mg/kg
NOAEL (Rattus norvegicus [3]; reproduction developmental, duration: 13 weeks, oral, diet, Sprague-Dawley): 38.8 mg/kg-day

CCOP(=S)(S)OCC [Diethyl dithiophosphoric acid]
LC50 (Rattus norvegicus [3]; inhalation): 1640 mg/m3
LD50 (Rattus norvegicus [3]; oral): 4510 mg/kg
LD50 (Oryctolagus sp.; New Zealand): > 2000 mg/kg

Clc1cc(Cl)cc(C2(CC(Cl)(Cl)Cl)CO2)c1 (centres undefined) [Tridiphane]
LEL (Rattus norvegicus [5]): 1.67 mg/kg-day
NOEL (Rattus norvegicus [5]): 0.33 mg/kg-day
